Experiments:
[1] = target: hCA I (Homo sapiens, UniProt P00915); test: stopped flow carbon dioxide hydrase assay, hCA I
[2] = target: hCA IX (Homo sapiens, UniProt Q16790); test: stopped flow carbon dioxide hydrase assay, hCA IX; settings: for Selectivity ratio I/IX: hCA IX over hCA I; for Selectivity ratio II/IX: hCA IX over hCA II
[3] = target: hCA XII (Homo sapiens, UniProt O43570); test: stopped flow carbon dioxide hydrase assay, hCA XII; settings: for Selectivity ratio I/XII: hCA XII over hCA I; for Selectivity ratio II/XII: hCA XII over hCA II
[4] = target: hCA II (Homo sapiens, UniProt P00918); test: stopped flow carbon dioxide hydrase assay, hCA II
[5] = test system: MCF-7; test: 72 h MTT anti-proliferative assay under hypoxic conditions, MCF-7; assay type: cell-based; settings: Homo sapiens, MCF7, mean ± S.D. of three experiments
Procedure: Therefore, QBS 11c and 13b were further screened for their potential in vitro anti-proliferative action against two breast cancer cell lines (MDA-MB-231 and MCF-7) under hypoxic conditions, exploiting a 72 h MTT assay protocol and using Doxorubicin as a positive control drug.
All adopted procedures for the conducted in vitro biological assays were performed as described earlier; CA (stopped-flow), cytotoxicity (MTT [37, 38]), and assessment of apoptotic markers assays, as well as induction of hypoxia with cobalt chloride, and were mentioned in the Supporting Materials.
(§1) 1. Carbonic anhydrase inhibition assay
16) herein reported have were assayed utilizing an instrument of Applied Photophysics stopped-flow. The enzymes are recombinant proteins prepared in our lab. Phenol red (at a concentration of 0.2 mM) has been used as indicator, working at the absorbance maximum of 557 nm, with 20 mM Hepes (pH 7.5) as buffer, and 20 mM Na2SO4 (for maintaining constant the ionic strength), […]
parameters and inhibition constants. For each inhibitor at least six traces of the initial 5-10% of the reaction have been used for determining the initial velocity . Th e un cat aly zed rates were determined in the same manner and subtracted from the total observed rates. Stock solutions of inhibitor (0.1 mM) were prepared in distilled-deionized water and dilutions up to 0.01 nM were done thereafter with the assay buffer. Inhibitor and enzyme solutions were preincubated together for 15 min at room temperature prior to assay, in order to allow fo r the formation of the E-I complex. […]
Cells were sub-cultured with try psine /EDTA solution, counted with haemocy tometer and plated onto 96-well plates (5000 cells/well) and left overnight to form a semi-confluent […]
monolay er. […] DMSO (100 µl/well) was added to dissolve the formazan crystals with shaking for 10 min after which the absorbance was read at 590 nm against no cell blanks on a FLuo Star Optima microplate reader (BMG technologies, Germany). Cell proliferation was calculated comparing the OD values of the DMSO control wells and those of the samples

[6] = test system: MDA-MB-231; test: 72 h MTT anti-proliferative assay under hypoxic conditions, MDA-MB-231; assay type: cell-based; settings: Homo sapiens, mean ± S.D. of three experiments
From the text: as §1
The enzymes are recombinant proteins prepared in our lab.
parameters and inhibition constants.
2. Anti-proliferative action toward human breast cell lines

Sequence of hCA I (P00915 whole entry): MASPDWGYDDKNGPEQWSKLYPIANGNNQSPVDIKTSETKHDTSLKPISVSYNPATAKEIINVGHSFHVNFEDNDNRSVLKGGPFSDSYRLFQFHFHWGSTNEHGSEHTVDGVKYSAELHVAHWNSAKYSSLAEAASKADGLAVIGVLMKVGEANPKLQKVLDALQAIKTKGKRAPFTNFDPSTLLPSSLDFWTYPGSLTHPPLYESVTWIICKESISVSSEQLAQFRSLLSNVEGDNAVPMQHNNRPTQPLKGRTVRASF
Sequence of hCA XII (O43570 25-354): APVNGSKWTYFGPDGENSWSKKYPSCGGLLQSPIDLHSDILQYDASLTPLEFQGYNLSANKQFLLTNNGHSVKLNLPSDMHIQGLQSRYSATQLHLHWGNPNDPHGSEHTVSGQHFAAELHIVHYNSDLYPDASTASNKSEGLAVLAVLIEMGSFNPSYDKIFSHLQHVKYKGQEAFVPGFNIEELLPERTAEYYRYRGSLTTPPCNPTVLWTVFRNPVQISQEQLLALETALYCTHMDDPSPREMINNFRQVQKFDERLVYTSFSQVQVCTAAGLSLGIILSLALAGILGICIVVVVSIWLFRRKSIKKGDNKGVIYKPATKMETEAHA

| melting point [°C] | Ki [1] [µM] | Ki [2] [µM] | Selectivity ratio I/IX [2] | Selectivity ratio II/IX [2] | Ki [3] [µM] | Selectivity ratio I/XII [3] | Selectivity ratio II/XII [3] | Ki [4] [µM] | SMILES | IC50 [5] [µM] | IC50 [6] [µM] |
| --- | --- | --- | --- | --- | --- | --- | --- | --- | --- | --- | --- |
| 244 to 246 | 0.258 | 0.0865 | 3.0 | 4.2 | 0.0731 | 3.5 | 5.0 | 0.366 | COc1ccc2nccc(Nc3cccc(S(N)(=O)=O)c3)c2c1 [11b, 3-((6-methoxyquinolin-4-yl)amino)benzenesulfonamide] | – | – |
| 270 to 272 | 0.0784 | 0.0258 | 3.0 | 1.4 | 0.0098 | 8.0 | 3.7 | 0.0365 | Cc1ccc2nccc(Nc3ccc(S(N)(=O)=O)cc3)c2c1 [13a, 4-((6-methylquinolin-4-yl)amino)benzenesulfonamide] | – | – |
| 280 to 282 | 3.5 | 0.104 | 33.8 | 14.5 | 0.0881 | 39.7 | 17.1 | 1.5 | Cc1ccc2nccc(Nc3ccc(C)c(S(N)(=O)=O)c3)c2c1 [11e, 2-methyl-5-((6-methylquinolin-4-yl)amino)benzenesulfonamide] | – | – |
| 284 to 286 | 0.0554 | 0.0186 | 3.0 | 0.4 | 0.0087 | 6.4 | 0.8 | 0.0073 | NS(=O)(=O)c1ccc(Nc2ccnc3ccc(Cl)cc23)cc1 [13c, 4-((6-chloroquinolin-4-yl)amino)benzenesulfonamide] | – | – |
| 248 to 250 | 2.26 | 0.853 | 2.6 | 1.2 | 0.152 | 14.8 | 6.6 | 0.998 | COc1ccc2nccc(Nc3ccc(C)c(S(N)(=O)=O)c3)c2c1 [11f, 5-((6-methoxyquinolin-4-yl)amino)-2-methylbenzenesulfonamide] | – | – |
| 172 to 174 | 0.105 | 0.0529 | 2.0 | 4.2 | 0.034 | 3.1 | 6.5 | 0.221 | NS(=O)(=O)c1cccc(Nc2ccnc3cc(C(F)(F)F)cc(C(F)(F)F)c23)c1 [11d, 3-((5,7-bis(trifluoromethyl)quinolin-4-yl)amino)benzenesulfonamide] | – | – |
| 282 to 285 | 4.52 | 0.116 | 38.9 | 20.3 | 0.0927 | 48.8 | 25.4 | 2.36 | Cc1ccc(Nc2ccnc3ccc(Cl)cc23)cc1S(N)(=O)=O [11g, 5-((6-chloroquinolin-4-yl)amino)-2-methylbenzenesulfonamide] | – | – |
| 272 to 274 | 0.663 | 0.0701 | 9.5 | 3.8 | 0.0412 | 16.1 | 6.4 | 0.265 | Cc1ccc2nccc(Nc3cccc(S(N)(=O)=O)c3)c2c1 [11a, 3-((6-methylquinolin-4-yl)amino)benzenesulfonamide] | – | – |

The remaining lines, values behind:

| SMILES | melting point [°C] | Ki [1] [µM] | Ki [2] [µM] | Selectivity ratio I/IX [2] | Selectivity ratio II/IX [2] | Ki [3] [µM] | Selectivity ratio I/XII [3] | Selectivity ratio II/XII [3] | Ki [4] [µM] | IC50 [5] [µM] | IC50 [6] [µM] |
| --- | --- | --- | --- | --- | --- | --- | --- | --- | --- | --- | --- |
| NS(=O)(=O)c1ccccc1Nc1ccnc2ccc(Cl)cc12 [9c, 2-((6-chloroquinolin-4-yl)amino)benzenesulfonamide] | 258 to 260 | 1.24 | 0.0656 | 18.9 | 1.3 | 0.0384 | 32.3 | 2.3 | 0.0868 | – | – |
| Cc1ccc2nccc(Nc3ccccc3S(N)(=O)=O)c2c1 [9a, 2-((6-methylquinolin-4-yl)amino)benzenesulfonamide] | 264 to 265 | 0.558 | 0.0364 | 15.3 | 2.2 | 0.0228 | 24.5 | 3.4 | 0.0784 | – | – |
| COc1ccc2nccc(NNC(=O)c3ccc(S(N)(=O)=O)cc3)c2c1 [compound 16, 4-(2-(6-Methoxyquinolin-4-yl)hydrazine-1-carbonyl)benzenesulfonamide] | 228 to 230 | 0.0814 | 0.0217 | 3.8 | 1.4 | 0.0254 | 3.2 | 1.2 | 0.0311 | – | – |
| COc1cccc2c1C(=O)c1c(O)c3c(c(O)c1C2=O)C[C@@](O)(C(=O)CO)C[C@@H]3O[C@H]1C[C@H](N)[C@H](O)[C@H](C)O1 [Doxorubicin, reference compound] | – | – | – | – | – | – | – | – | – | 3.04 ± 0.14 | 1.67 ± 0.08 |
| NS(=O)(=O)c1ccccc1Nc1ccnc2cc(C(F)(F)F)cc(C(F)(F)F)c12 [9d, 2-((5,7-bis(trifluoromethyl)quinolin-4-yl)amino)benzenesulfonamide] | – | 1.56 | – | – | – | – | – | – | 0.112 | – | – |
| COc1ccc2nccc(Nc3ccccc3S(N)(=O)=O)c2c1 [9b, 2-((6-methoxyquinolin-4-yl)amino)benzenesulfonamide] | 275 to 277 | 0.864 | 0.0392 | 22.1 | 1.3 | 0.0421 | 20.5 | 1.2 | 0.0497 | – | – |
